# Measured values reported in patent US20220133831A1, “Sarcopoterium Spinosum Extract for Treating Inflammation” (Ariel Scientific Innovations Ltd., priority 2019, published 2022).
# Assays:
# Assay type in all cases: cell-based, mouse
# [1] = test system: RAW264.7 cells; test: Cell viability assay (XTT); details: 24 h
# Description: (§1) In-vitro experiments were performed on RAW264.7 mouse macrophage cell line and on bone marrow-derived macrophages (BMDM). RAW264.7 cells were grown in high glucose DMEM containing 10% FBS, 2 mM 1-glutamine and 1% penicillin/streptomycin. For BMDM: C57bl/6J mice at age 10 weeks were purchased from Envigo, Israel. BMDMs were isolated from femur and tibia bones. Mice were sacrificed using a CO2 chamber. Mice legs were cut off, while fur, flesh and muscle tissue were removed in sterile environment followed by disconnection of the tibia from the femur. Bone marrow content was washed out using a complete RPMI and 23G syringe followed by filtration of the supernatant through a 21G syringe. The cells were centrifuged at 450×g for 10 min at room temperature and the pellet was resuspended in RPMI containing 10% FBS, 1% penicillin/streptomycin, HEPES buffer (120 Mm) and M-CSF (50 μg/ml). The media was replaced every 3 days. The experiment was performed on the 7th day of differentiation.
# RAW264.7 cells were seeded (5×10^4 cells/well) in 96-well plates, and incubated overnight followed by treatment with LPS (200 ng/ml) and/or SSE (70 μg/ml). Cell viability was determined by XTT assay (Biological Industries, Israel. Cat. No.: 20-300-1000) according to manufacturer instructions.
# [2] = test system: RAW264.7 cells; test: Cell morphology, bright field micrographs; details: LPS or SSE, 24 h
# Description: FIGS. 3A-3B show increased viability and affected cell morphology in […] cells in response to SSE treatment. RAW264.7 cells were treated with lipopolysaccharide (LPS) or SSE for 24 h. A. Viability was measured by XTT assay. Results are presented as the Mean±SEM, *P<0.05, **P<0.005, ***P<0.001 by one-way Anova, followed by Bonferroni's post-test. B. Micrographs of cells were performed using bright field Olympus imaging system, ×20 magnification. Upper two: left—control; right—LPS; lower two: left—SSE; right—LPS+SSE.
# as §1, with “The cells were centrifuged at 450×g for 10 min at room temperature and the pellet was resuspended in RPMI containing 10% FBS, 1% penicillin/streptomycin, HEPES buffer (120 Mm) and M-CSF (50 μg/ml). The media was replaced every 3 days. The experiment was performed on the 7th day of differentiation.” left out
# [3] = test system: RAW264.7 cells; test: Nitrite assay (Griess reagent), NO synthesis; details: LPS and/or SSE, 24 h
# Description: (§2) RAW264.7 cells (1×10^5 cells/ml) were cultured in 6-well plates. After 24 h incubating, NO synthesis was determined by assaying the culture supernatant for nitrite, using Griess reagent (Promega), according to manufacturer instructions.
# [4] = test system: RAW264.7 cells; test: Real time PCR, mRNA expression of pro and anti-inflammatory genes; details: LPS and/or SSE, 24 h
# Description: (§3) Total RNA was extracted from Raw264.7 cells using TRI reagent (Molecular Research Center, Inc. Cincinnati, Ohio) according to manufacturer instructions. RNA (4 μg) was reverse transcribed by oligo-dT priming (Stratascript 5.0 multi-temperature reverse transcriptase, Stratagene) according to manufacturer instructions. Real-time PCR amplification reactions were performed using SYBR Fast Universal Ready-mix Kit (Kappa Biosystems), using the MxPro QPCR instrument (Stratagene). Primers for real time PCR reactions were synthesized by Sigma, Israel.
# [5] = test system: NFκB in RAW264.7 cells; test: NFκB activation (NFkB p65 Transcription Factor Assay Kit); details: LPS 200 ng/ml, SSE 70 μg/ml
# Description: RAW264.7 cells were treated with LPS (200 ng/ml) or SSE (70 μg/ml) for 3 h. NFκB activation was measured using NFkB p65 Transcription Factor Assay Kit (Abcam, Cambridge, UK), according to manufacturer instructions. In this assay, nuclear proteins were extracted using extraction buffer supplied by Abcam. The samples were homogenized and centrifuged at 12,000 RPM for 1 min. The supernatant was collected and protein concentration was measured using the Bradford method. Nuclear protein extract (5 μg) was added to the wells, which were coated with DNA sequence containing the NFkB response element. The selective binding of the transcription factor to its DNA response element was measured according to manufacturer's instructions.
# [6] = test system: RAW264.7 cells; test: Western blot analysis of MAPK, STAT and Akt phosphorylation
# Description: RAW264.7 cells were treated with LPS (200 ng/ml) and/or SSE (70 μg/ml) for 24 hr. Protein were lysed using RIPA buffer supplemented with protease and phosphatase inhibitors. The samples were homogenized and centrifuged at 14,000 rpm for 15 min. The supernatant was collected and protein concentration was measured using the Bradford method. Proteins (20 μg per lane) were separated by SDS-polyacrylamide gel electrophoresis and transferred onto nitrocellulose membranes. The membranes were blocked in 5% dry milk solution, incubated with the appropriate antibody solutions (5% BSA in 0.01% TBST) and proteins were immunodetected using the enhanced chemiluminescence method.
# [7] = test system: bone marrow-derived macrophages (BMDM); test: Cell morphology of bone marrow-derived macrophages; details: LPS or SSE, 24 hr
# Description: FIGS. 6A-6D show an immunomodulatory effect of SSE on bone marrow-derived macrophages (BMDM). BMDM were isolated and cultured as described in the methods. Cells were treated with LPS and/or SSE for 24 hr. A. micrographs of cells were performed by bright field Olympus imaging system. Upper two: left—control; right—LPS; lower two: left—SSE; right—LPS+SSE. B. NO synthesis was measured by Griess reagent as described in the methods. C. mRNA was isolated and expression of selected genes was measured by RT-PCR as described in the methods. Results were normalized to the expression of the housekeeping gene RPS29, and are presented as the Mean±SEM. *P<0.05, **P<0.005, ***P<0.001 ****P<0.0001 compared to control, or as indicated in graphs, by one-way Anova, followed by Bonferroni's post-test. D. Western-blot analysis was performed as described in the methods. These are representative results of 3 independent experiments.
# In-vitro experiments were performed on RAW264.7 mouse macrophage cell line and on bone marrow-derived macrophages (BMDM). RAW264.7 cells were grown in high glucose DMEM containing 10% FBS, 2 mM 1-glutamine and 1% penicillin/streptomycin. For BMDM: C57bl/6J mice at age 10 weeks were purchased from Envigo, Israel. BMDMs were isolated from femur and tibia bones. Mice were sacrificed using a CO2 chamber. […]
# [8] = test system: bone marrow-derived macrophages (BMDM); test: NO secretion of BMDM (Griess reagent); details: 24 hr
# Description: as §1, §2
# [9] = test system: bone marrow-derived macrophages (BMDM); test: mRNA expression in BMDM (RT-PCR); details: 24 hr
# Description: as §1, §3
# [10] = test system: bone marrow-derived macrophages (BMDM); test: Western blot analysis of MAPK phosphorylation in BMDM
# Description: as §1
# RAW264.7 cells were treated with LPS (200 ng/ml) and/or SSE (70 μg/ml) for 24 hr. Protein were lysed using RIPA buffer supplemented with protease and phosphatase inhibitors. The samples were homogenized and centrifuged at 14,000 rpm for 15 min. The supernatant was collected and protein concentration was measured using the Bradford method. […]
# [11] = LPS 200 ng/ml or SSE 70 μg/ml, 24 hr
substance,measurement,setting,value
lipopolysaccharide [LPS],proliferation rate (viability by XTT),[1],stimulatory effect
same,morphology of cells,[2],"flattened, increased in size and acquired a distinct dendritic morphology"
same,NO synthesis (nitrite in supernatant),[3],increased
same,mRNA expression of IL1β,[4],increased
same,mRNA expression of IL-6,[4],increased
same,mRNA expression of MCP-1,[4],increased
same,mRNA expression of TNFα,[4],increased
same,NFκB activation (binding of NFκB to its DNA response element),[5],increased
same,Akt phosphorylation,[6],induced
same,STAT1 phosphorylation,[6],not affected
same,STAT3 phosphorylation on S727 residue,[6],induced to be phosphorylated
same,ERK1/2 phosphorylation,[6]; [11],phosphorylated
same,JNK phosphorylation,[6]; [11],phosphorylated
same,p38 phosphorylation,[6]; [11],phosphorylated
same,STATS phosphorylation,[6]; data not shown,not detected at all
same,morphology of BMDM,[7],"enlargement of the cells, with a minor vacuolization"
same,NO secretion (basal),[8],significantly increased
same,mRNA expression of Arg1,[9],also increased
same,mRNA expression of IL1β,[9],stimulated
same,mRNA expression of IL-6,[9],stimulated
same,mRNA expression of IL-10,[9],also increased
same,mRNA expression of MCP-1,[9],stimulated
same,mRNA expression of TNFα,[9],stimulated
same,Erk phosphorylation,[10],phosphorylated
same,P38 phosphorylation,[10],increased
